Molecular target: T1, human full-length MKNK1 (Homo sapiens, UniProt Q9BUB5, T385D)
T1 construct: GST (N); purchased Carna Biosciences 02-145; host or cells: insect cells (baculovirus expression system)
Assay: MKNK1 kinase high ATP assay (TR-FRET)
Assay type: biochemical
Settings: high ATP (2 mM final), 15 min preincubation with enzyme, 30 min reaction at 22° C.
Description: MKNK1-inhibitory activity at high ATP of compounds of the present invention after their preincubation with MKNK1 was quantified employing the TR-FRET-based MKNK1 high ATP assay as described in the following paragraphs.
A recombinant fusion protein of Glutathione-S-Transferase (GST, N-terminally) and human full-length MKNK1 (amino acids 1-424 and T344D of accession number BAA 19885.1), expressed in insect cells using baculovirus expression system and purified via glutathione sepharose affinity chromatography, was purchased from Carna Biosciences (product no 02-145) and used as enzyme. As substrate for the kinase reaction the biotinylated peptide biotin-Ahx-IKKRKLTRRKSLKG (C-terminus in amide form) was used, which can be purchased e.g. from the company Biosyntan (Berlin-Buch, Germany).
For the assay 50 nL of a 100 fold concentrated solution of the test compound in DMSO was pipetted into a black low volume 384 well microtiter plate (Greiner Bio-One, Frickenhausen, Germany), 2 μL of a solution of MKNK1 in aqueous assay buffer [50 mM HEPES pH 7.5, 5 mM MgCl2, 1.0 mM dithiothreitol, 0.005% (v/v) Nonidet-P40 (Sigma)] was added and the mixture was incubated for 15 min at 22° C. to allow pre-binding of the test compounds to the enzyme before the start of the kinase reaction. Then the kinase reaction was started by the addition of 3 μL of a solution of adenosine-tri-phosphate (ATP, 3.3 mM=>final conc. in the 5 μL assay volume is 2 mM) and substrate (0.1 μM=>final conc. in the 5 μL assay volume is 0.06 μM) in assay buffer and the resulting mixture was incubated for a reaction time of 30 min at 22° C. The concentration of MKNK1 was adjusted depending of the activity of the enzyme lot and was chosen appropriate to have the assay in the linear range, typical concentrations were in the range of 0.003 μg/mL. The reaction was stopped by the addition of 5 μL of a solution of TR-FRET detection reagents (5 nM streptavidine-XL665 [Cisbio Bioassays, Codolet, France] and 1 nM anti-ribosomal protein S6 (pSer236)-antibody from Invitrogen [#44921G] and 1 nM LANCE EU-W1024 Labeled ProteinG [Perkin-Elmer, product no. AD0071]) in an aqueous EDTA-solution (100 mM EDTA, 0.1% (w/v) bovine serum albumin in 50 mM HEPES pH 7.5).
The resulting mixture was incubated for 1 h at 22° C. to allow the formation of complex between the phosphorylated biotinylated peptide and the detection reagents. Subsequently the amount of phosphorylated substrate was evaluated by measurement of the resonance energy transfer from the Eu-chelate to the streptavidine-XL. Therefore, the fluorescence emissions at 620 nm and 665 nm after excitation at 350 nm were measured in a TR-FRET reader, e.g. a Rubystar (BMG Labtechnologies, Offenburg, Germany) or a Viewlux (Perkin-Elmer). The ratio of the emissions at 665 nm and at […] was taken as the measure for the amount of phosphorylated substrate. The data were normalised (enzyme reaction without inhibitor=0% inhibition, all other assay components but no enzyme=100% inhibition).

T1 sequence (Q9BUB5 1-424 isoform Q9BUB5-2 T344D): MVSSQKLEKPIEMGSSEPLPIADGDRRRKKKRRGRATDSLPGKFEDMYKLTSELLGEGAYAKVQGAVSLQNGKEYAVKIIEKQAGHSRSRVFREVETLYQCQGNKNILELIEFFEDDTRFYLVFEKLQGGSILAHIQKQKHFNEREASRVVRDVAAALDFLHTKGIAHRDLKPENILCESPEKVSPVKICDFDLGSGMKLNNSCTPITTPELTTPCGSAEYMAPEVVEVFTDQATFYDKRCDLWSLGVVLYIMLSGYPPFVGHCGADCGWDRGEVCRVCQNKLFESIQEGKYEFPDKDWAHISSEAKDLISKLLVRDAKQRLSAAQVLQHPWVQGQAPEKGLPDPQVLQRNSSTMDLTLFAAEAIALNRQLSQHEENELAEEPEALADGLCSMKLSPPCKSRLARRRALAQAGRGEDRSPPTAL

Row | Structure (SMILES) | IC50 [nM]
1 | N#Cc1n[nH]c2ccc(Nc3ncnc4[nH]ccc34)cc12 [Example 43, 5-(7H-Pyrrolo[2,3-d]pyrimidin-4-ylamino)-1H-indazole-3-carbonitrile] | 1340
2 | CC(C)Oc1cc2[nH]ncc2cc1Nc1ncnc2[nH]cc(C(=O)N3CCN(C)CC3)c12 [Example 29, (4-Methylpiperazin-1-yl)(4-{[6-(propan-2-yloxy)-1H-indazol-5-yl]amino}-7H-pyrrolo[2,3-d]pyrimidin-5-yl)methanone] | 117
3 | CCc1[nH]c2ncnc(Nc3cc4cn[nH]c4cc3OC(C)C)c2c1C [Example 27, 6-Ethyl-5-methyl-N-[6-(propan-2-yloxy)-1H-indazol-5-yl]-7H-pyrrolo[2,3-d]pyrimidin-4-amine] | 3
4 | COc1cc2[nH]ncc2cc1Nc1ncnc2[nH]c(C)cc12 [Example 37, N-(6-Methoxy-1H-indazol-5-yl)-6-methyl-7H-pyrrolo[2,3-d]pyrimidin-4-amine] | 23
5 | COc1cc2[nH]ncc2cc1Nc1ncnc2[nH]c(Cl)cc12 [Example 41, 6-Chloro-N-(6-methoxy-1H-indazol-5-yl)-7H-pyrrolo[2,3-d]pyrimidin-4-amine] | 21
6 | CCOc1cc2[nH]ncc2cc1Nc1ncnc2[nH]c(CC)c(C)c12 [Example 44, N-(6-Ethoxy-1H-indazol-5-yl)-6-ethyl-5-methyl-7H-pyrrolo[2,3-d]pyrimidin-4-amine] | 3
7 | Fc1cc2[nH]ncc2cc1Nc1ncnc2[nH]cc(Br)c12 [Example 15, 5-Bromo-N-(6-fluoro-1H-indazol-5-yl)-7H-pyrrolo[2,3-d]pyrimidin-4-amine] | 12
8 | CC(C)Oc1cc2[nH]ncc2cc1Nc1ncnc2[nH]cc(C(=O)N(C)C)c12 [Example 30, N,N-Dimethyl-4-{[6-(propan-2-yloxy)-1H-indazol-5-yl]amino}-7H-pyrrolo[2,3-d]pyrimidine-5-carboxamide] | 141
9 | Cc1cc2[nH]ncc2cc1Nc1ncnc2[nH]cc(F)c12 [Example 11, 5-Fluoro-N-(6-methyl-1H-indazol-5-yl)-7H-pyrrolo[2,3-d]pyrimidin-4-amine] | 74
10 | COc1cc2[nH]ncc2cc1Nc1ncnc2[nH]c(S(C)(=O)=O)cc12 [Example 21, N-(6-Methoxy-1H-indazol-5-yl)-6-(methylsulfonyl)-7H-pyrrolo[2,3-d]pyrimidin-4-amine] | 6
11 | CC(C)Oc1cc2[nH]ncc2cc1Nc1ncnc2[nH]cc(C(=O)O)c12 [Example 28, 4-{[6-(Propan-2-yloxy)-1H-indazol-5-yl]amino}-7H-pyrrolo[2,3-d]pyrimidine-5-carboxylic acid] | 184
12 | CN1CCN(C(=O)c2c[nH]c3ncnc(Nc4cc5cn[nH]c5cc4F)c23)CC1 [Example 17, {4-[(6-Fluoro-1H-indazol-5-yl)amino]-7H-pyrrolo[2,3-d]pyrimidin-5-yl}(4-methylpiperazin-1-yl)methanone] | 30
13 | CC(C)Oc1cc2[nH]ncc2cc1Nc1ncnc2[nH]cc(F)c12 [Example 25, 5-Fluoro-N-[6-(propan-2-yloxy)-1H-indazol-5-yl]-7H-pyrrolo[2,3-d]pyrimidin-4-amine] | 5
14 | COc1cc2[nH]ncc2cc1Nc1ncnc2[nH]cc(F)c12 [Example 3, 5-fluoro-N-(6-methoxy-1H-indazol-5-yl)-7H-pyrrolo[2,3-d]pyrimidin-4-amine] | 5
15 | Cc1cc2[nH]ncc2cc1Nc1ncnc2[nH]cc(C(=O)N3CCN(C)CC3)c12 [Example 13, {4-[(6-Methyl-1H-indazol-5-yl)amino]-7H-pyrrolo[2,3-d]pyrimidin-5-yl}(4-methylpiperazin-1-yl)methanone] | 194
16 | CC(C)Oc1cc2[nH]ncc2cc1Nc1ncnc2[nH]c(C#CCO)cc12 [Example 32, 3-(4-{[6-(Propan-2-yloxy)-1H-indazol-5-yl]amino}-7H-pyrrolo[2,3-d]pyrimidin-6-yl)prop-2-yn-1-ol] | 14
17 | CN(C)C(=O)c1c[nH]c2ncnc(Nc3cc4cn[nH]c4cc3F)c12 [Example 16, 4-[(6-Fluoro-1H-indazol-5-yl)amino]-N, N-dimethyl-7H-pyrrolo[2,3-d]pyrimidine-5-carboxamide] | 31
18 | COc1cc2[nH]ncc2cc1Nc1ncnc2[nH]c(CCCO)cc12 [Example 23, 3-{4-[(6-Methoxy-1H-indazol-5-yl)amino]-7H-pyrrolo[2,3-d]pyrimidin-6-yl}propan-1-ol] | 27
19 | Fc1cc2[nH]ncc2cc1Nc1ncnc2[nH]cc(F)c12 [Example 9, 5-Fluoro-N-(6-fluoro-1H-indazol-5-yl)-7H-pyrrolo[2,3-d]pyrimidin-4-amine] | 29
20 | CC(C)Oc1cc2[nH]ncc2cc1Nc1ncnc2[nH]c(Cl)cc12 [Example 40, 6-Chloro-N-[6-(propan-2-yloxy)-1H-indazol-5-yl]-7H-pyrrolo[2,3-d]pyrimidin-4-amine] | 29

Now those with a lower IC50, led by results:

Row | IC50 [nM] | Structure (SMILES)
21 | 1 | COc1cc2[nH]ncc2cc1Nc1ncnc2[nH]c(S(=O)(=O)c3ccc(C)cc3)cc12 [Example 51, N-(6-Methoxy-1H-indazol-5-yl)-6-[(4-methylphenyl)sulfonyl]-7H-pyrrolo[2,3-d]pyrimidin-4-amine]
22 | 1 | COc1cc2[nH]ncc2cc1Nc1ncnc2[nH]c(CC(C)C)c(C(C)C)c12 [Example 56, N-(6-Methoxy-1H-indazol-5-yl)-6-(2-methylpropyl)-5-(propan-2-yl)-7H-pyrrolo[2,3-d]pyrimidin-4-amine]
23 | 1 | COc1cc2[nH]ncc2cc1Nc1ncnc2[nH]c(C(=O)N(C)C)c(Br)c12 [Example 59, 5-Bromo-4-[(6-methoxy-1H-indazol-5-yl)amino]-N,N-dimethyl-7H-pyrrolo[2,3-d]pyrimidine-6-carboxamide]
24 | 1 | COc1cc2[nH]ncc2cc1Nc1ncnc2[nH]c(C(=O)N3C[C@@H]4C[C@H]3CO4)c(Br)c12 [Example 64, {5-Bromo-4-[(6-methoxy-1H-indazol-5-yl)amino]-7H-pyrrolo[2,3-d]pyrimidin-6-yl}[(1S,4S)-2-oxa-5-azabicyclo[2.2.1]hept-5-yl]methanone]
25 | 1 | COc1cc2[nH]ncc2cc1Nc1ncnc2[nH]c(C(=O)N3CCCC3)c(Br)c12 [Example 61, {5-Bromo-4-[(6-methoxy-1H-indazol-5-yl)amino]-7H-pyrrolo[2,3-d]pyrimidin-6-yl}(pyrrolidin-1-yl)methanone]
26 | < 1 | COc1cc2[nH]ncc2cc1Nc1ncnc2[nH]c(C(=O)O)c(Br)c12 [Example 48, 5-Bromo-4-[(6-methoxy-1H-indazol-5-yl)amino]-7H-pyrrolo[2,3-d]pyrimidine-6-carboxylic acid]
27 | 1 | COc1cc2[nH]ncc2cc1Nc1ncnc2[nH]cc(Br)c12 [Example 19, 5-Bromo-N-(6-methoxy-1H-indazol-5-yl)-7H-pyrrolo[2,3-d]pyrimidin-4-amine]
28 | 1 | Cc1c[nH]c2ncnc(Nc3cc4cn[nH]c4cc3OC(C)C)c12 [Example 38, 5-Methyl-N-[6-(propan-2-yloxy)-1H-indazol-5-yl]-7H-pyrrolo[2,3-d]pyrimidin-4-amine]
29 | 2 | CC(C)Oc1cc2[nH]ncc2cc1Nc1ncnc2[nH]cc(Br)c12 [Example 26, 5-Bromo-N-[6-(propan-2-yloxy)-1H-indazol-5-yl]-7H-pyrrolo[2,3-d]pyrimidin-4-amine]
